# Measurements from US10517842B2, “Methods of modulating miRNA levels and compositions for use in the same” (Los Angeles Biomedical Research Institute at Harbor-UCLA …, priority 2017, dated 2019).
# Assays:
# Assay type in all cases: cell-based, human
# CCND1 = assay: Quantitative RT-PCR, mRNA expression in LSMC; settings: Tranilast 200 μM vs DMSO, 12 h to 48 h, P<0.05
# Method: (§1) Total RNA was extracted from LSMC using RNAzol (GeneCopoeia, Rockville, Md.) and their quantity and quality was determined (ND-1000 Spectrophotometer, NanoDrop Technologies, Wilmington, Del.) as previously described (Chuang & Khorram, “miR-200c Regulates IL8 Expression by Targeting IKBKB: A Potential Mediator of Inflammation in Leiomyoma Pathogenesis,” PloS one (2014) 9:e95370). For medium miRNA extraction, 5 pg of synthetic miR-1 from Caenorhabditis elegans (cel-miR-1) was added as a spike-in control for purification efficiency. Subsequently, 2 μg or 10 ng (for miRNA) was reverse transcribed using random primers for CCND1, CDK2, COL1A1, COL3A1, TGF-β3, DNMT1 and EZH2 or specific primers for miR-29c and miR-200c according to the manufacturer's guidelines (Applied Biosystems, Carlsbad, Calif.). Quantitative RT-PCR was carried out using SYBR gene expression master mix or TaqMan miRNA expression assays (Applied Biosystems). Reactions were incubated for 10 min at 95° C. followed by 40 cycles for 15 seconds at 95° C. and 1 min at 60° C. The level of mRNAs and expression of cellular and secreted miRNA was determined using the Invitrogen StepOne System with 18S, RNU6B and cel-miR-1 used for normalization respectively. All reactions were run in triplicate and relative expression was analyzed with the comparative cycle threshold method (2^−ΔΔCT) according to the manufacturer (Applied Biosystems). Values were expressed as fold change compared to the control group.
# CDK2 = assay: Quantitative RT-PCR, mRNA expression in LSMC; settings: Tranilast 200 μM vs DMSO, 12 h to 48 h, P<0.05
# Method: as §1
# COL1 = assay: Quantitative RT-PCR, mRNA expression in LSMC; settings: Tranilast 200 μM vs DMSO, 12 h to 48 h, P<0.05
# Method: as §1
# COL3A1 = assay: Quantitative RT-PCR, mRNA expression in LSMC; settings: Tranilast 200 μM vs DMSO, 12 h to 48 h, P<0.05
# Method: as §1
# DNMT1 = assay: Quantitative RT-PCR, mRNA expression in LSMC; settings: Tranilast 200 μM vs DMSO, 12 h to 48 h, P<0.05
# Method: as §1
# EZH2 = assay: Quantitative RT-PCR, mRNA expression in LSMC; settings: Tranilast 200 μM vs DMSO, 12 h to 48 h, P<0.05
# Method: as §1
# TGF-β3 = assay: Quantitative RT-PCR, mRNA expression in LSMC; settings: Tranilast 200 μM vs DMSO, 12 h to 48 h, P<0.05
# Method: as §1
# miR-200c promoter = assay: Methylation-specific PCR in LSMC; settings: Tranilast 200 μM, 24 hrs, Me/Me+Un, P<0.05
# Method: (§2) LSMC at sub-confluence were treated with Tranilast (200 μM) for 24 hrs and genomic DNA was extracted and treated with bisulfite (EZ DNA Methylation Kit, Zymo Research Corporation, Irvine, Calif.). Since methylated cytosine residues remained unchanged after bisulfite conversion, this approach allows distinguishing DNA sequences which are methylated or unmethylated in specific genomic regions using sequence-specific PCR primers (Li & Dahiya, “MethPrimer: designing primers for methylation PCRs,” Bioinformatics (2002)18:1427-31). The pair of primers used to detect the methylated (Me) sequence of miR-29c promoter were 5′-[…]-3′ (SEQ ID NO:17) and 5′-[…]-3′ (SEQ ID NO:18) and for the unmethylated (Un) sequence of miR-29c promoter were 5′-[…]-3′ (SEQ ID NO:19) and 5′-[…]-3′ (SEQ ID NO:20). The pair of primers used to detect the methylated (Me) sequence of miR-200c promoter were 5′-[…]-3′ (SEQ ID NO:21) and 5′-[…]-3′ (SEQ ID NO:22), and for the unmethylated (Un) sequence of miR-200c promoter were 5′-[…]-3′ (SEQ ID NO:23) and 5′-[…]-3′ (SEQ ID NO:24). DNA amplification was carried out following manufacturer's protocol (HotStarTaq Plus PCR reagent, Qiagen, Valencia, Calif.). The PCR condition was 5 min at 95° C., followed by 40 cycles of amplification at 94° C. for 30 seconds, 30 seconds at 55° C., and 1 min at 72° C. […]
# miR-29c promoter = assay: Methylation-specific PCR in LSMC; settings: Tranilast 200 μM, 24 hrs, Me/Me+Un, P<0.05
# Method: as §2
# 3′UTR of CDK2 = assay: 3′UTR luciferase reporter assay in LSMC; settings: Tranilast 200 μM vs DMSO set as 1, 48 hrs before and 48 hrs after transfection, LSMC; P<0.05
structure (smiles),measurement,setting,value
"COc1ccc(C=CC(=O)Nc2ccccc2C(=O)O)cc1OC [Tranilast, 2-[[3-(3,4-dimethoxyphenyl)-1-oxo-2-propenyl]amino]benzoic acid]","CCND1 expression, mRNA level",CCND1,significantly inhibited
same,"CDK2 expression, mRNA level",CDK2,significantly inhibited
same,"COL1 expression, mRNA level",COL1,significantly inhibited
same,"COL3A1 expression, mRNA level",COL3A1,significantly inhibited
same,"DNMT1 expression, mRNA level",DNMT1,significantly inhibited
same,"EZH2 expression, mRNA level",EZH2,significantly inhibited
same,"TGF-β3 expression, mRNA level",TGF-β3,significantly inhibited
same,methylation status in miR-200c promoter,miR-200c promoter,significantly suppressed
same,methylation status in miR-29c promoter,miR-29c promoter,significantly suppressed
same,"3′UTR activity of CDK2 (relative luciferase activity, Firefly:Renilla)",3′UTR of CDK2,suppressed
